Assay results taken from US20260345621A1, “GABAA RECEPTOR MODULATORS AND USES THEREOF” (Engrail Therapeutics, Inc., priority 2022, published 2026).
“Also recorded” adds a separate entry of the source. Like-named read-outs stand apart in the source and are kept apart here.

Experiments:
[1] = Multiple ascending dose study, plasma pharmacokinetics; assay type: in vivo, human (healthy volunteers); settings: for Cmax at 24 h / AUC(0-t) at 24 h / Tmax at 24 h: Day 1; for AUC tau / Cmax at 288 h / half-life / Tmax at 288 h: Day 12
Experimental: A clinical study was developed to evaluate safety, tolerability, pharmacokinetics, and pharmacodynamics of Compound 1 at plasma steady-state in 40 healthy human volunteers. Compound 1 (provided as Compound 1 phosphate) was administered to participants as multiple ascending doses of 0.5 mg (N=6), 1.0 mg (N=6), 1.5 mg (N=6), 2.0 mg (N=6), or 5.0 mg (N=6) once daily (QD) for 12 days.
Blood samples were collected, and plasma concentrations were measured using a validated high performance liquid chromatography/liquid chromatography-mass spectrometry/mass spectrometry method. The PK parameters assessed included Cmax, Tmax, AUC from administration to the end of dosing (AUC0-t), AUC0-24, AUC0-inf, t1/2, terminal rate constant (λz), apparent total clearance of the drug from plasma (CL/F), and apparent volume of distribution during terminal phase after non-intravenous administration (Vz/F).
The plasma concentration data for Compound 1 were summarized by dose level and the planned sampling time points using descriptive statistics (n, SD, median, minimum, maximum, geometric mean, and coefficient of variance (CV %) for the geometric mean) for the PK Analysis Set.
Specifically, samples for PK analyses were taken on Day 1 and Day 12 pre-dose, 0.5, 1, 1.5, 3, 6, 8, 10, and 12 h post-dose, with additional samples taken on every dosing Day (24 hours after the previous day's dose) and 24, 72, 168, and 336 h after last dosing on Day 12. All individual Compound 1 concentrations were above the LLOQ of 0.0500 ng/mL at 0.5 h post-dose, except for 1 participant, for whom the concentration was above the LLOQ at 1 h post-dose.

EEG spectral bands = assay: Pharmaco-EEG spectral analysis in wirelessly implanted rats
[2] = biological target: human GABAA receptor α2/β2/γ2 (Homo sapiens, UniProt P18507+P47869); assay: SyncroPatch platform, PAM mode, GABAA α2/β2/γ2
[3] = biological target: human GABAA receptor α5/β3/γ2 (Homo sapiens, UniProt P18507+P31644); assay: SyncroPatch platform, PAM mode, GABAA α5/β3/γ2
[4] = human, plasma, po, 2 mg, 2.0 mg oral QD, read-out: Cmax (mean)
[5] = human, plasma, po, 2 mg, 2.0 mg oral QD, read-out: Cmax (median)
[6] = human, plasma, po, 5 mg, 5.0 mg oral QD, read-out: Cmax (mean)
[7] = human, plasma, po, 5 mg, 5.0 mg oral QD, read-out: Cmax (median)
[8] = human, plasma, 0.5 mg oral QD, read-out: Tmax (median)
[9] = human, plasma, 1.0 mg oral QD, read-out: Tmax (median)
[10] = human, plasma, 1.5 mg oral QD, read-out: Tmax (median)
[11] = human, plasma, 2.0 mg oral QD, read-out: Tmax (median)
[12] = human, plasma, 5.0 mg oral QD, read-out: Tmax (median)
[13] = Frontal-Parietal cortex, Quiet Wake

Chain of human GABAA receptor α2/β2/γ2 (P47869 29-451): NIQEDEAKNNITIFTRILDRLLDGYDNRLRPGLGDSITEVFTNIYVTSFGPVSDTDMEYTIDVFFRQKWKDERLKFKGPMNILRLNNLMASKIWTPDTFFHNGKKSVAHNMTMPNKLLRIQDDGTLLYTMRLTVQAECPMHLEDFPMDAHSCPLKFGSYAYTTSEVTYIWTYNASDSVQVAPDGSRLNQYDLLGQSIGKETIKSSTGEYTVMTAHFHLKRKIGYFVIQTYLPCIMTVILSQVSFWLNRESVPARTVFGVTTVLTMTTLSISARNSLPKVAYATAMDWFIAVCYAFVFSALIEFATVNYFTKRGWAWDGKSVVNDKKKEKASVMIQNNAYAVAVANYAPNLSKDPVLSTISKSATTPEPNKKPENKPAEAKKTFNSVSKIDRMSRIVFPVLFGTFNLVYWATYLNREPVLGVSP
Chain of human GABAA receptor α2/β2/γ2 (P18507 40-475): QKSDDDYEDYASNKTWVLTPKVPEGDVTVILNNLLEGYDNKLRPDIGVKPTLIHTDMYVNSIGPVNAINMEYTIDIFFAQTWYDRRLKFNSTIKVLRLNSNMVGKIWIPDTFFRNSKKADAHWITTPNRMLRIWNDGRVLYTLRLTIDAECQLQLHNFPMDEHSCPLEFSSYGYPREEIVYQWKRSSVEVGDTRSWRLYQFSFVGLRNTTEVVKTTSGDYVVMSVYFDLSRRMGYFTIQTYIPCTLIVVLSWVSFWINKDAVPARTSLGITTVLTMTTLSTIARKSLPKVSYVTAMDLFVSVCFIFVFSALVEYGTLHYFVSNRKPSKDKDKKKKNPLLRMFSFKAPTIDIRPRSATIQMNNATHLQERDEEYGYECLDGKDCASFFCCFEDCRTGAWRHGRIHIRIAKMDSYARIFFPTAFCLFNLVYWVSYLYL
Chain of human GABAA receptor α2/β2/γ2 (P47870 25-512 partner limits assumed): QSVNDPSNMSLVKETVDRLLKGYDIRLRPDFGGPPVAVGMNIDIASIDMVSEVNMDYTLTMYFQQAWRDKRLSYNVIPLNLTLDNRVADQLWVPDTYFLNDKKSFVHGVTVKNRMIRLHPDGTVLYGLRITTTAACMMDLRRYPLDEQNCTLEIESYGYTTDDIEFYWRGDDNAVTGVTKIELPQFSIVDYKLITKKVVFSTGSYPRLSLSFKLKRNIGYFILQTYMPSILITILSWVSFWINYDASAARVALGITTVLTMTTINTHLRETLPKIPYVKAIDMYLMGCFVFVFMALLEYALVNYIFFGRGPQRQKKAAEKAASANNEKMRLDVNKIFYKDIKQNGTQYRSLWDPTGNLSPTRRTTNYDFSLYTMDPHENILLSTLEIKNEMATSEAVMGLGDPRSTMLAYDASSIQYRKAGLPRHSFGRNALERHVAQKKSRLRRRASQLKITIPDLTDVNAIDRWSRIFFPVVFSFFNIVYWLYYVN
Chain of human GABAA receptor α5/β3/γ2 (P31644 32-462): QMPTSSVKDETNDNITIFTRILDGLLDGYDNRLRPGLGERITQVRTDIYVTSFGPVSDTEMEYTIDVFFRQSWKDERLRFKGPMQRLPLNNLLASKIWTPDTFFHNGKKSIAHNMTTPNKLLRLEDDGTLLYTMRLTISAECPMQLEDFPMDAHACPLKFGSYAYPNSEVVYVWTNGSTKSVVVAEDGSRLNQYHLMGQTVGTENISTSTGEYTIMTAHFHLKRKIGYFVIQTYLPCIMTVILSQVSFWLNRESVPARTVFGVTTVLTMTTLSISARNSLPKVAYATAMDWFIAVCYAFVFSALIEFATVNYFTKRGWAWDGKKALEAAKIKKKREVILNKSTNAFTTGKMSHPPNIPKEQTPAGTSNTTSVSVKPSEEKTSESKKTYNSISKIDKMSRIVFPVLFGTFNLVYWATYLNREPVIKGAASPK
Chain of human GABAA receptor α5/β3/γ2 (P18507 40-475): as the sequence (P18507 40-475) above
Chain of human GABAA receptor α5/β3/γ2 (P28472 26-473 partner): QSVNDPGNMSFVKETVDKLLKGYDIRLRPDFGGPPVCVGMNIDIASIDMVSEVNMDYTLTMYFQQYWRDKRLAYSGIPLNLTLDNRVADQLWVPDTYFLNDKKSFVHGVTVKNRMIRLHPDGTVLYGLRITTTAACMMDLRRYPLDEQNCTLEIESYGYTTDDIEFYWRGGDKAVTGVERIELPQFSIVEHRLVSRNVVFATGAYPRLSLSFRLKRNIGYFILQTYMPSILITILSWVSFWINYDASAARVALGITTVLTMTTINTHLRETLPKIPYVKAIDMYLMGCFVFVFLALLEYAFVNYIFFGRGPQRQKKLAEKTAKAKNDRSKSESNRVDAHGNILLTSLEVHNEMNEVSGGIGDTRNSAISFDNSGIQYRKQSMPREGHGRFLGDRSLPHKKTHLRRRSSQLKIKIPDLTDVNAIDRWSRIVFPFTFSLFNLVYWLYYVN

Q: For `CC(C)(O)c1cnn2c(-c3ccc(F)c(-c4c(F)cccc4C#N)c3)cnc2n1` [Compound 1, 2′,6-difluoro-5′-(3-(2-hydroxypropan-2-yl)imidazo[1,2-b][1,2,4]triazin-7-yl)-[1,1′-biphenyl]-2-carbonitrile], which Cmax at 24 h [1, 4] is on record?
A: 19.6 ± 4 ng/mL

Q: What about the Cmax at 24 h [1, 5] of the same molecule?
A: 19.9 ng/mL

Q: And the AUC tau ([1]; human, plasma, po, 2 mg, 2.0 mg oral QD, read-out: AUCtau (mean))?
A: 873 ± 331 ng·h/mL

Q: And the AUC tau ([1]; human, plasma, po, 2 mg, 2.0 mg oral QD, read-out: AUCtau (median))?
A: 891 ng·h/mL

Q: And the Cmax at 288 h [1, 4]?
A: 49.8 ± 17 ng/mL

Q: And the Cmax at 288 h [1, 5]?
A: 48.2 ng/mL

Q: And the half-life ([1]; human, plasma, po, 2 mg, 2.0 mg oral QD, read-out: t1/2 (mean) (converted))?
A: 3660 ± 1560 min

Q: What about the half-life ([1]; human, plasma, po, 2 mg, 2.0 mg oral QD, read-out: t1/2 (median) (converted)) of the same molecule?
A: 3140 min

Q: What about the AUC(0-t) at 24 h ([1]; human, plasma, po, 5 mg, 5.0 mg oral QD, read-out: AUC0-24 (mean)) of the same molecule?
A: 642 ± 125 ng·h/mL

Q: What about the AUC(0-t) at 24 h ([1]; human, plasma, po, 5 mg, 5.0 mg oral QD, read-out: AUC0-24 (median)) of the same molecule?
A: 609 ng·h/mL

Q: What about the Cmax at 24 h [1, 6] of the same molecule?
A: 49.7 ± 13 ng/mL

Q: And the Cmax at 24 h [1, 7]?
A: 49.5 ng/mL

Q: What about the AUC(0-t) at 24 h ([1]; human, plasma, po, 5 mg, 5.0 mg oral QD, read-out: highest individual AUC0-24) of the same molecule?
A: 853 ng·h/mL

Q: And the AUC tau ([1]; human, plasma, po, 5 mg, 5.0 mg oral QD, read-out: AUCtau (mean))?
A: 1800 ng·h/mL

Q: And the AUC tau ([1]; human, plasma, po, 5 mg, 5.0 mg oral QD, read-out: AUCtau (median))?
A: 1800 ng·h/mL

Q: What about the Cmax at 288 h [1, 6] of the same molecule?
A: 99.1 ng/mL

Q: What about the Cmax at 288 h [1, 7] of the same molecule?
A: 106 ng/mL

Q: What about the AUC tau ([1]; human, plasma, po, 5 mg, 5.0 mg oral QD, read-out: highest individual AUCtau) of the same molecule?
A: 2170 ng·h/mL

Q: What about the half-life ([1]; human, plasma, po, 5 mg, 5.0 mg oral QD, read-out: t1/2 (mean) (converted)) of the same molecule?
A: 2340 ± 540 min

Q: What about the half-life ([1]; human, plasma, po, 5 mg, 5.0 mg oral QD, read-out: t1/2 (median) (converted)) of the same molecule?
A: 2230 min

Q: And the concentration at 0.5 h ([1]; human, plasma, po, 0.5 h post-dose, all except 1 participant, read-out: individual plasma concentrations versus LLOQ)?
A: > 0.05 ng/mL

Q: What about the Tmax ([1]; human, plasma, po, Day 1 and Day 12, all doses except 5.0 mg on Day 1, read-out: Tmax (median)) of the same molecule?
A: 3 h

Q: And the Tmax at 24 h [1, 8]?
A: 3 h

Q: And the Tmax at 288 h [1, 8]?
A: 3 h

Q: And the Tmax at 24 h [1, 9]?
A: 3 h

Q: And the Tmax at 288 h [1, 9]?
A: 3 h

Q: What about the Tmax at 24 h [1, 10] of the same molecule?
A: 3 h

Q: What about the Tmax at 288 h [1, 10] of the same molecule?
A: 3 h

Q: What about the Tmax at 24 h [1, 11] of the same molecule?
A: 3 h

Q: And the Tmax at 288 h [1, 11]?
A: 3 h

Q: What about the Tmax at 24 h [1, 12] of the same molecule?
A: 4.5 h

Q: And the Tmax at 288 h [1, 12]?
A: 3 h

Q: What about the Tmax at 24 h ([1]; human, plasma, up to 2.0 mg oral QD, read-out: Tmax (median)) of the same molecule?
A: 3 h

Q: And the absorption ([1]; oral)?
A: rapidly absorbed

Q: What about the “end of absorption and distribution phase” value ([1]; plasma, after which elimination phase commenced) of the same molecule?
A: approximately 12 h

Q: And the concentration decline profile ([1]; plasma, oral QD)?
A: bi-exponential decline

Q: And the “variability in key PK parameters” value ([1]; up to 5.0 mg repeatedly for 12 days)?
A: acceptable

Q: And the “EEG spectral power change” value (EEG spectral bands; Frontal-Frontal cortex, Active and Quiet Wake)?
A: increased beta, low and high gamma

Q: What about the “EEG spectral power change” value (EEG spectral bands; Frontal-Frontal cortex, NREM) of the same molecule?
A: decreased theta and alpha; also recorded: decreased delta and increased low and high gamma

Q: And the “duration of EEG effects” value (EEG spectral bands; Frontal-Frontal cortex, NREM, Compound 1 high dose PO, Lorazepam 1 mg/kg IP)?
A: 48 h

Q: And the “EEG spectral power change” value (EEG spectral bands; Frontal-Frontal cortex, REM)?
A: increased beta

Q: And the “EEG spectral power change” value (EEG spectral bands; Frontal-Parietal cortex, Active Wake)?
A: decreased alpha but increased beta, low and high gamma

Q: What about the “EEG spectral power change” value (EEG spectral bands; Frontal-Parietal cortex, NREM) of the same molecule?
A: decreased delta, theta, and alpha; also recorded: increase in low and high gamma

Q: And the “duration of delta and theta effects” value (EEG spectral bands; Frontal-Parietal cortex, NREM)?
A: 48 h

Q: What about the “duration of increase in low and high gamma” value (EEG spectral bands; Frontal-Parietal cortex, NREM) of the same molecule?
A: 48 h

Q: What about the “EEG spectral power change” value (EEG spectral bands; [13]) of the same molecule?
A: decreased delta but increased beta, low and high gamma

Q: What about the “duration of EEG effects” value (EEG spectral bands; [13]) of the same molecule?
A: 48 h

Q: And the “EEG spectral power change” value (EEG spectral bands; Frontal-Parietal cortex, REM)?
A: decreased theta and alpha but increased beta and low gamma

Q: And the “decrease in delta/theta power” value (EEG spectral bands; Non-REM sleep)?
A: 40%

Q: And the “delta and theta power” value (EEG spectral bands; Non-REM sleep, all doses, ANOVA w Dunnett's)?
A: significant decreases in delta and theta power across all doses

Q: And the EEG profile (EEG spectral bands; oral dosing, rats)?
A: EEG changes indicative of an anxiolytic profile

Q: What about the “sedation / anxiolytic profile” value (EEG spectral bands; sleep-wake pattern and EEG profile analysis) of the same molecule?
A: non-sedative anxiolytic profile

Q: What about the “EEG spectral power change” value (EEG spectral bands; summary, Active Wake) of the same molecule?
A: increased low gamma and decreased alpha (Parietal ctx)

Q: What about the “EEG spectral power change” value (EEG spectral bands; summary, Non-REM) of the same molecule?
A: suppressed power in low frequencies (Delta, Theta, and Alpha) and increased higher frequencies (gamma)

Q: And the “EEG spectral power change” value (EEG spectral bands; summary, Quiet Wake)?
A: increased beta and low gamma

Q: What about the “EEG spectral power change” value (EEG spectral bands; summary, REM) of the same molecule?
A: increased beta

Q: And the EC50 [2]?
A: 0.8 nM

Q: What about the Emax [2] of the same molecule?
A: 50%

Q: What about the EC50 [3] of the same molecule?
A: 0.2 nM

Q: What about the Emax [3] of the same molecule?
A: 96%
